Measurements as given in paper PMC11219871, “Epigenetic-based differentiation therapy for Acute Myeloid Leukemia” (Nature Communications, 2024).
Values joined by “and” are separate entries in the source; they are usually repeats but may differ in a detail not shown here. Identical values can stand only once.

Key:
ML-2 [1] = test: Differentiation-apoptosis assay, CD11b / annexin-V / Sytox Green / myeloid markers flow cytometry; type: cell-based, human; design: Cell viability: concentration or dose not given beside the values; CD11b levels: unit not given here
In short: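 Differentiation and apoptosis were read by flow cytometry after 15 min dark staining at room temperature with APC-CD11b plus FITC annexin-V, 1 × 10^6 cells/mL in binding buffer. Myeloid markers CD13, HLA-DR and CD14 were stained in separate runs for 30 min, followed by lysis and washing.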

ML-2 [2] = test: Acetylome analysis (Acetyl-K enrichment, LC-MS/MS); type: cell-based, human
Protocol: Cellular pellets were lysed for 15 min at 95 °C in 4% SDS, 100 mM Hepes/NaOH pH 8.0, containing 5 mM sodium butyrate and 5 mM Nicotinamide. After cooling down, lysates were incubated at 25 °C with 10 units of DNAse (Benzonase, Merk) and sonicated for 15 min in a Bioruptor for DNA shearing. Protein concentration was determined using microBCA, using BSA as standard. Samples were digested using on-bead protein aggregation capture (PAC) with ReSyn Biosciences MagReSyn® Hydoxyl microparticles (ratio Protein/Beads 1:5) in an automated King Fisher instrument (Thermo). Proteins were digested for 16 h at 37 C with LysC/Trypsin mix at a protein: enzyme ratio of 1:100 in 50 mM TEAB pH 8.0 (Trypsin Sequence grade, Sigma; LysC, Wako). The resulting peptides were speed-vac dried and dissolved in 100 µL of 200 mM HEPES pH 8.5.
Peptides (500 µg) were labeled with Thermo Scientific TMTpro 18plex™ Isobaric reagents for 1 h at 25 C. Reaction was quenched by adding 5% hydroxylamine for 15 min. Samples were pooled at a 1:1 ratio based on the total peptide amount, determined by comparing overall signal intensities on a regular LC-MS/MS run. The final mixture was desalted using a 500 mg Sep-Pak C18t cartridge (Waters) and dried prior to high pH reverse phase HPLC pre-fractionation.
Labeled peptides were fractionated offline through a high pH reverse phase chromatography using an Ultimate 3000 HPLC system equipped with a sample collector. Briefly, peptides were dissolved in 1200 µL of Buffer A (10 mM NH4OH) and loaded onto a XBridge BEH130 C18 column (3.5 µm, 250 mm length and 3.5 mm ID, Waters). Buffer B was composed of 10 mM NH4OH in 90% CH3CN. The following gradient was used at a flow rate of 500 µL/min: 0-50 min 0-25% B, 50-56 min 25-60% B, 56-57 min 60-90% B. One-minute fractions (500 µL) from […] were collected and neutralized with 10% formic acid. Based on the UV absorbance at 280 nm, 95% of the volume of 40 fractions was pooled in 5 fractions for Acetyl-Lysine enrichment. The 5% of these fractions was kept for proteome analysis. Pooled fractions were snap-frozen and lyophilized.
Lyophilized peptides (1.5 mg) from each pool were immuno-affinity purified with the PTMScan HS Acetyl-Lysine Motif (Ac−K) kit (Cell Signaling Technology). For each pool, three consecutive immuno-purifications (IPs) were performed using the manufacturer’s protocol in an automated King Fisher instrument (Thermo). Elution of purified peptides was performed in two consecutive steps of 50 μl of 0.15% TFA. Samples were desalted with C18 stage tips and eluates were vacuum dried and resuspended in 0.1% formic acid for subsequent analysis by LC−MS/MS.
LC-MS/MS was done by coupling an UltiMate 3000 RSLCnano LC system to an Orbitrap Exploris 480 mass spectrometer (Thermo Fisher Scientific). Samples were loaded into a trap column (Acclaim™ PepMap™ 100 C18 LC Columns 5 µm, 20 mm length) for 3 min at a flow rate of 10 µL/min in 0.1% FA. Peptides were then transferred to an EASY-Spray PepMap RSLC C18 column (Thermo) (2 µm, 75 µm x 50 cm) operated at 45 °C and separated using a 90 min effective gradient (buffer A: 0.1% FA; buffer B: 100% ACN, 0.1% FA) at a flow rate of 250 nL/min. The gradient used was, from 4% to 6% of buffer B the first 2 min, from 6% to 33% B the next 58 min, plus 10 additional minutes at 98% B.
The mass spectrometer was operated in a data-dependent mode, with an automatic switch between MS and MS/MS scans using a top 15 method. (Intensity threshold ≥ 1e4, dynamic exclusion of 20 sec and excluding charges unassigned, +1 and ≥ +7). MS spectra were acquired from 350 to 1500 m/z with a resolution of 60,000 FMHW (200 m/z). Ion peptides were isolated using a 0.7 Th window and fragmented using higher-energy collisional dissociation (HCD) with a normalized collision energy NCE of 36. MS/MS spectra were acquired with a fixed first mass of 120 m/z and a resolution of 45,000 FMHW (200 m/z). […]

[3] = ML-2, 48 h, replicates (Fig 4A)
[4] = ML-2, daily treatment, time 0 days, replicates 1-3 (Figure 2B)
[5] = ML-2, daily treatment, time 2 days, replicates 1-3 (Figure 2B)
[6] = ML-2, daily treatment, time 4 days, replicates 1-3 (Figure 2B)
[7] = ML-2, daily treatment, time 6 days, replicates 1-3 (Figure 2B)
[8] = ML-2, daily treatment, time 8 days, replicates 1-3 (Figure 2B)
[9] = ML-2, first (superseded) acetylome experiment, peer review file
[10] = distribution of acetylated sites in the acetylated proteins (Fig 4D)

COc1cc2nc(-c3cc(C)oc3C)cc(NCC3CCN(c4ncc(C(=O)NO)cn4)CC3)c2cc1OC [CM-1758, 2-[4-[[[2-(2,5-dimethyl-3-furyl)-6,7-dimethoxy-4-quinolyl]amino]methyl] -1-piperidyl]pyrimidine-5-carbohydroxamic acid]
percentage of CD11b (ML-2 [1]; ML-2, 260 nM CM-444 or 210 nM CM-1758 daily for 4 days, before injection): > 90%
CD11b (%) (ML-2 [1]; ML-2, 48 h): 75.6%
CD13 (%) (ML-2 [1]; ML-2, 48 h): 98.6%
CD14 (%) (ML-2 [1]; ML-2, 48 h): 2.86%
HLA-DR (%) (ML-2 [1]; ML-2, 48 h): 17.4%
CD11b (ML-2 [1]; [3]): 64.3% and 61.7% and 64.6%
Cell viability (ML-2 [1]; [3]): 89.3% and 72.6% and 87.1%
differentiation level (CD11b) (ML-2 [1]; ML-2, after 6–8 days of treatment): ~90%
Annexin-V (%) (ML-2 [1]; [4]): 0% and 1.81% and 2.3%
CD11b (%) (ML-2 [1]; [4]): 9.3% and 9.32% and 7.24%
Annexin-V (%) (ML-2 [1]; [5]): 0% and 5.74% and 8.47%
CD11b (%) (ML-2 [1]; [5]): 46.98% and 27.2% and 35.8%
Annexin-V (%) (ML-2 [1]; [6]): 10.26% and 4.49% and 5.25%
CD11b (%) (ML-2 [1]; [6]): 56.51% and 40.8% and 55.87%
Annexin-V (%) (ML-2 [1]; [7]): 4.87% and 1.99% and 9.87%
CD11b (%) (ML-2 [1]; [7]): 77.98% and 70% and 78.6%
Annexin-V (%) (ML-2 [1]; [8]): 5.37% and 6.87% and 10.45%
CD11b (%) (ML-2 [1]; [8]): 88.06% and 83.2% and 89.7%
CD11b (%) (ML-2 [1]; ML-2 cell line, replicates 1-3 (Figure 2A)): 53.45% and 67.6% and 52.5%
CD11b levels (ML-2 [1]; ML-2 treated daily for 48 h, replicates (Fig 6E)): 45.9 and 51.7 and 43.7
Number of proteins with >5 Acetyl-K sites per protein (ML-2 [2]): 14
Acetyl-K sites regulated, Number, Histone proteins (ML-2 [2]; Fig 4G): 55
Acetyl-K sites regulated, Number, Non-histone proteins (ML-2 [2]; Fig 4G): 681
Acetyl-K sites regulated, Percentages, Histone proteins (ML-2 [2]; Fig 4G): 7.5
Acetyl-K sites regulated, Percentages, Non-histone proteins (ML-2 [2]; Fig 4G): 92.5
Acetyl-K sites: Down-regulated, % (ML-2 [2]; ML-2 (Fig 4C)): 10.9%
Acetyl-K sites: Down-regulated, Number (ML-2 [2]; ML-2 (Fig 4C)): 395
Acetyl-K sites: Non-regulated, % (ML-2 [2]; ML-2 (Fig 4C)): 79.7%
Acetyl-K sites: Non-regulated, Number (ML-2 [2]; ML-2 (Fig 4C)): 2882
Acetyl-K sites: Quantified (total number) (ML-2 [2]; ML-2 (Fig 4C)): 3618
Acetyl-K sites: Regulated, % (ML-2 [2]; ML-2 (Fig 4C)): 20.3%
Acetyl-K sites: Regulated, Number (ML-2 [2]; ML-2 (Fig 4C)): 736
Acetyl-K sites: Up-regulated, % (ML-2 [2]; ML-2 (Fig 4C)): 9.4%
Acetyl-K sites: Up-regulated, Number (ML-2 [2]; ML-2 (Fig 4C)): 341
fraction of regulated acetylation sites upregulated (ML-2 [2]; ML-2, 25% GI50, 12 h): 46.3%
Acetyl-K sites, Down-regulated (ML-2 [2]; ML-2, 25% GI50, 12 h, Fig. 4C): 395
Acetyl-K sites, Up-regulated (ML-2 [2]; ML-2, 25% GI50, 12 h, Fig. 4C): 341
regulated Acetyl-K sites in Histone proteins (ML-2 [2]; ML-2, 25% GI50, 12 h, Fig. 4G): 55
regulated Acetyl-K sites in Non-histone proteins (ML-2 [2]; ML-2, 25% GI50, 12 h, Fig. 4G): 681
percentage of Acetyl-K sites regulated (ML-2 [2]; ML-2, 25% GI50, 12 h, of 3618 quantified): 20.3%
acetyl K-sites regulated specifically by the compound (ML-2 [2]; [9]): 80
fraction of regulated acetylation sites upregulated (ML-2 [2]; [9]): 61.2%
Number of proteins with 1 Acetyl-K site per protein (ML-2 [2]; [10]): 381
Number of proteins with 2 Acetyl-K sites per protein (ML-2 [2]; [10]): 73
Number of proteins with 3 Acetyl-K sites per protein (ML-2 [2]; [10]): 31
Number of proteins with 4 Acetyl-K sites per protein (ML-2 [2]; [10]): 6
